Patent publication US20160022751A1, “NOVEL COMPOSITION FOR TREATING ALZHEIMER'S DISEASE AND IMPROVING COGNITIVE FUNCTION OF ALZHEIMER'S PATIENTS” (GANGNEUNG-WONJU NATIONAL UNIVERSITY INDUSTRY ACADEMY …, priority 2014, published 2016)

Columns and labels:
IDE [1] = assay: IDE protein expression in HMO6 cells (western blot, immunocytochemistry); format: cell-based, human; details: 5 μg/ml Rg3, 24 h (FIG. 19)
Experimental: (§1) FIG. 19 represents an images showing a result of western blot analysis of the expression of NEP (neprilysin) and IDE (insulin-degrading enzyme) in HMO6 cells (A); graphs representing the above result quantitatively (B and C), and fluorescence microscopic images representing immunocytochemical analyses (D and E). The expression of NEP and IDE in HMO6 cells was analyzed by western blot analysis and immunocytochemistry after treating Aβ42 (5 μM) or Rg3 (2.5 or 5 μg/ml) for 24 h to HMO6 cells in serum-free DMEM medium plated on 60 mm cell culture plates or chamber slides. The results are shown as mean±SD. * P<0.05, ** P<0.01, *** P<0.001.
(§2) HMO6 cells were lysed in 1% RIPA buffer containing protease and phosphatase inhibitors (Roche, Mannheim, Germany) and whole-cell lysates were separated on 10% sodium dodecyl sulfate-polyacrylamide gel electrophoresis. After electrophoresis, the proteins were transferred to polyvinylidene fluoride membranes, and the membranes were blocked with 5% skim milk in Tris-buffered saline solution containing 0.1% Tween-20. The membranes were then immunoblotted with primary antibodies, anti-phospho-p38, anti-p38, anti-phospho-ERK, anti-ERK, and anti-f3-actin (Santa Cruz Biotechnology, USA), followed by incubation with horseradish peroxidase-conjugated anti-rabbit or anti-mouse secondary antibodies (Stressgen, USA). […]

NEP [2] = assay: NEP protein expression in HMO6 cells (western blot, immunocytochemistry); format: cell-based, human; details: 5 μg/ml Rg3, 24 h (FIG. 19)
Experimental: as §1, §2

IDE [3] = assay: IDE mRNA expression in HMO6 human microglial cells (qPCR); format: cell-based
Experimental: (§3) HMO6 human microglial cell line was kindly provided by Dr. SU Kim (Chung-Ang University, Korea). HMO6 cells were grown in Dulbecco's Modified Eagle's Medium (DMEM) (Hyclone, USA) supplemented with 10% fetal bovine serum, 100 U/ml penicillin, and 100 μg/ml streptomycin (Invitrogen, USA). Cultures were maintained under 5% CO2 at 37° C. in tissue culture flasks. Cells were grown to >90% confluency and subjected to no more than 20 cell passages. Medium was changed every 2-3 days. Subconfluent cells were harvested and seeded at a density of 5×10^5 cells or 5×10^6 cells in poly-L-lysine-coated 35-mm or 60-mm culture plates. After 24 h of plating, the medium was replaced with serum-free DMEM, washed once with phosphate buffered saline (PBS), and treated with Rg3 or Aβ42.
Total RNA extracts from HMO6 cells or perfused brain tissue were prepared using the Trizol method (Invitrogen). cDNA was synthesized from RNA by reverse transcription of 1 μg total RNA using the Improm-II reverse transcription system (Promega, Wis., USA) and oligo dT primers in a total volume of 20 μl. PCR amplification was performed using the primers listed in Table 1 (Bioneer, Korea). qPCR reactions were run on a Rotor-Gene 6000 (Corbett Research, Sydney, Australia) using a SensiMix™ SYBR Hi-ROX Kit (Bioline, UK) in 20 μl reaction mixtures. Each real-time-PCR master mix contained 10 μl 2× enzyme master mix, 7 μl RNase free water, 1 μl of each primer (10 pM each), and 1 μl diluted template. The PCR was performed with an initial pre-incubation step for 15 min at 95° C., followed by 45 cycles of 95° C. for 15 s, annealing at 52° C. for 15 s, and extension at 72° C. for 10 s. […] Relative sample expression levels were calculated using Rotor-Gene 6000 Series Software 1.7 and were expressed relative to β-actin for mice or glyceraldehyde 3-phosphate dehydrogenase for HMO6 cells and corrected for between-run variability. Data for the experimental samples are expressed as a percentage of the internal control gene. […]

NEP [4] = assay: NEP mRNA expression in HMO6 human microglial cells (qPCR); format: cell-based
Experimental: as §3, with “After 24 h of plating, the medium was replaced with serum-free DMEM, washed once with phosphate buffered saline (PBS), and treated with Rg3 or Aβ42.” left out
Total RNA extracts from HMO6 cells or perfused brain tissue were prepared using the Trizol method (Invitrogen). cDNA was synthesized from RNA by reverse transcription of 1 μg total RNA using the Improm-II reverse transcription system (Promega, Wis., USA) and oligo dT primers in a total volume of 20 μl. […] Relative sample expression levels were calculated using Rotor-Gene 6000 Series Software 1.7 and were expressed relative to β-actin for mice or glyceraldehyde 3-phosphate dehydrogenase for HMO6 cells and corrected for between-run variability. Data for the experimental samples are expressed as a percentage of the internal control gene. […]

caveolin1 = assay: Caveolin1 immunocytochemistry in HMO6 cells; format: cell-based, human; details: Rg3 5 μg/ml, 24 h, immunocytochemistry (FIG. 20)
Experimental: FIG. 20 is a fluorescence microscopic image showing a result of immunocytochemical analysis investigating the expression of caveolin and clathrin in HMO6 cells treated with or without Rg3. HMO6 cells were treated with Rg3 (5 μg/ml) for 24 h after plated on chamber slides and then the cells were stained with primary antibodies binding specifically to caveolin and clathrin, respectively and counterstained with DAPI. The length of scale bar represents 10 μm.
The present inventors investigated whether ginsenosides can induce the expression of SRA, clathrin, caveolin 1, NEP or IDE and the differentiation of neurons actually through immunocytochemical analysis (ICC) and microscopic observations. Specifically, Cultured HMO6 cells were fixed in 4% paraformaldehyde (in 1×PBS) for 15 min, washed twice with 1×PBS supplemented with 100 mM glycine for 5 min, and incubated with permeabilization buffer consisting of 0.1% Triton X-100 (Sigma-Aldrich, USA) in 1×PBS for 30 min at room temperature. Blocking was performed with 1% bovine serum albumin (BSA, Sigma-Aldrich, USA) for 30 min at room temperature. Then, SRA, clathrin, caveolin1, NEP, or IDE mouse monoclonal antibody (1:200; Santa Cruz Biotechnology, USA) was added to 1% BSA in PBS with Tween 20 (PBST) and incubated for 2 h at room temperature. […]

ERK = ERK phosphorylation in HMO6 cells (western blot); format: cell-based, human; details: Rg3 5 μg/ml, western blot (FIG. 18)
Experimental: FIG. 18 is a photograph showing a result of western blot analysis for confirming the degree of phosphorylation of ERK (extracellular-regulated kinase) and p38, according to an embodiment of the present invention. Depending on the presence of Rg3, the levels of phospho-ERK and phospho-p38 protein were investigated by immune-blotting. HMO6 cells were treated with Rg3 (5 μg/ml) after plated on 60 mm cell culture plates and western blot analysis was performed after the cells were placed in phenol red negative/sere-free DMEM medium for 1 h. The western blot analysis was carried out three times independently.
HMO6 cells were lysed in 1% RIPA buffer containing protease and phosphatase inhibitors (Roche, Mannheim, Germany) and whole-cell lysates were separated on 10% sodium dodecyl sulfate-polyacrylamide gel electrophoresis. After electrophoresis, the proteins were transferred to polyvinylidene fluoride membranes, and the membranes were blocked with 5% skim milk in Tris-buffered saline solution containing 0.1% Tween-20. The membranes were then immunoblotted with primary antibodies, anti-phospho-p38, anti-p38, anti-phospho-ERK, anti-ERK, and anti-f3-actin (Santa Cruz Biotechnology, USA), followed by incubation with horseradish peroxidase-conjugated anti-rabbit or anti-mouse secondary antibodies (Stressgen, USA). Blots were developed using an enhanced chemiluminescent solution (Thermo, USA).

[5] = Rg3-treated HMO6 cells (FIG. 14)

CC(C)=CCC[C@](C)(O)[C@H]1CC[C@]2(C)[C@@H]1[C@H](O)C[C@@H]1[C@@]3(C)CC[C@H](O[C@@H]4O[C@H](CO)[C@@H](O)[C@H](O)[C@H]4O[C@@H]4O[C@H](CO)[C@@H](O)[C@H](O)[C@H]4O)C(C)(C)[C@@H]3CC[C@]12C [ginsenoside Rg3]
IDE expression in cells (IDE [1]): distinctively expressed
NEP expression in cells (NEP [2]): distinctively expressed
IDE mRNA (IDE [3]; HMO6 cells, Aβ42 (5 μM) and/or Rg3 (2.5 or 5 μg/ml), 24 h (FIG. 15E)): increased significantly
IDE expression versus untreated control group (IDE [3]; [5]): about six-fold higher
IDE mRNA expression (IDE [3]; [5]): dose-dependently increased
NEP mRNA (NEP [4]; HMO6 cells, Aβ42 (5 μM) and/or Rg3 (2.5 or 5 μg/ml), 24 h (FIG. 15D)): increased significantly
NEP mRNA expression (NEP [4]; [5]): dose-dependently increased
caveolin1 expression (caveolin1): highly expressed
phosphorylation of ERK (ERK): promoted the phosphorylation
